From US20220071960A1, “CANCER TREATMENTS” (IMPERIAL COLLEGE INNOVATIONS LIMITED, priority 2018, published 2022)

Key:
SKNAS-ER-N-MYC cell line [1] = assay: CellTiter Blue metabolic viability, SKNAS-ER-N-MYC; assay type: cell-based, human; details: 96 hours, with or without induction of MYCN
Description: (§1) In the experimental protocols described herein the SKNAS and Shep cell lines were genetically engineered to model differences between high grade neuroblastoma (which are usually marked by MYCN amplifications and with particular poor clinical prognosis) and low grade neuroblastoma. Accordingly, the SKNAS and/or Shep cell lines “with N-MYC induction” described herein will be understood to be cell lines treated with tamoxifen and represent aggressive, high grade type cancer cells. Conversely, the SKNAS and/or Shep cell lines “without N-MYC induction” described herein will be understood to be cell lines not treated with tamoxifen and represent less aggressive forms of cancer cells (Huang et al., Cold Spring Harb. Perspect. Med., 2013, 3(10), 1-22).
(§2) At the respective end points of the experiments 20 μL/well of the CellTiter Blue Assay (Promega, G8081) were added and the cells were incubated at 37° C. for 3 hours. The fluorescence was measured at 570 nm using an EnVision™ plate reader. As a positive control, the highest DMSO concentration was added to the cells (usually 0.4% DMSO); as a negative control, the cells were treated with 10 μg/mL Puromycin and 1 uM Staurosporine (Merck, P7255 and S4400, respectively).
The experiment was performed in a 48 well plate and in technical triplicate. On day 0, 5,500 cells/well were seeded in 200 μL media. […]

SKNAS-ER-N-MYC cell line [2] = assay: Flow cytometry (cell number, caspase3, cell cycle), SKNAS-ER-N-MYC; assay type: cell-based, human; details: MYCN activated cells; FIG. 19
Description: (§3) Single-cell suspensions were stained with the following monoclonal antibody: α-Active Caspase3 (BD Biosciences, C92-605, 550821, PE) and c-Myc (Abeam, Y69, ab190560). To analyse DNA content, we stained with FxCycle Violet (ThermoFisher Scientific, F10347). To assess proliferation, we used the Click-iT EdU Alexa Fluor 488 Flow Cytometry Assay Kit (ThermoFisher Scientific, C10420) according to manufacturer's instructions. Zombie NIR (Biolegend, 423105) was used to exclude dead cells. The cells were fixed in a 4% solution of PFA, permeabilised with Cytofix/Cytoperm (BD Bioscience, 554714) and washed in Perm/Wash Buffer (BD Bioscience, 554723). Samples were acquired on a MACSQuant VYB (Miltenyi Biotec) and analysed using the FlowJo software (v10.4, Tree star).
(§4) The experiment was performed in a 24 well plate and in technical duplicate. On day 0, 7,800 cells/well for the Shep and 15,000 cells/well for the SKNAS were seeded in 500 μL media. On day 1, the media was removed and 600 μL of media with 100 nM of Tamoxifen, to induce N-Myc, or ethanol as control. On day 2, the respective concentrations of NMT inhibitor were added. After 6 hours, 24 hours, 48 hours and 72 hours the cells were treated according to the general procedures; however, all the media was collected to not loose apoptotic cells, and Trypsin (ThermoFisher Scientific, 25200056) was used to harvest the cells. […]

P-493-6 cell line = assay: CellTiter Blue metabolic viability, P-493-6; assay type: cell-based
Description: The P-493-6 cell line is a non-transformed B cell line that can be genetically engineered to have either “low” levels of c-Myc, “medium” levels of c-Myc or “high” levels of c-Myc. The terms “low”, “medium” and “high” are descriptors commonly used in the art and will be readily understood to mean: • i) “low” levels of c-Myc-a level of MYC expression which represents non-proliferating normal cells (i.e. a level of MYC expression not sufficient to cause the cycling of the cells); • ii) “medium” levels of c-Myc-a level of MYC expression which represents normal proliferating cells; and • iii) ““high” levels of c-Myc-a level of MYC expression which represents enforced/deregulated expression of c-Myc, typically observed in cancerous cells. At the respective end points of the experiments 20 μL/well of the CellTiter Blue Assay (Promega, G8081) were added and the cells were incubated at 37° C. for 3 hours. The fluorescence was measured at 570 nm using an EnVisionTM plate reader. As a positive control, the highest DMSO concentration was added to the cells (usually 0.4% DMSO); as a negative control, the cells were treated with 10 μg/mL Puromycin and 1 uM Staurosporine (Merck, […] and […], respectively). The experiment was performed in a 96 well plate and in technical quadruplicate. […]

Shep-ER-N-MYC cell line [3] = assay: CellTiter Blue metabolic viability, Shep-ER-N-MYC; assay type: cell-based, human; details: 72 hours, with or without induction of MYCN
Description: as §1, §2
The experiment was performed in a 96 well plate and in technical quadruplicate. On day 0, 1,000 cells/well were seeded in 50 μL media. […]

Shep-ER-N-MYC cell line [4] = assay: Flow cytometry (cell number, caspase3, cell cycle), Shep-ER-N-MYC; assay type: cell-based, human
Description: as §3, §4

human NMT1 (HsNMT1) = molecular target: T1, human NMT1 (HsNMT1) (Homo sapiens, UniProt P30419); assay: HsNMT1 fluorescence-based assay (CoA detection by CPM); assay type: biochemical
T1 sequence (P30419 1-496): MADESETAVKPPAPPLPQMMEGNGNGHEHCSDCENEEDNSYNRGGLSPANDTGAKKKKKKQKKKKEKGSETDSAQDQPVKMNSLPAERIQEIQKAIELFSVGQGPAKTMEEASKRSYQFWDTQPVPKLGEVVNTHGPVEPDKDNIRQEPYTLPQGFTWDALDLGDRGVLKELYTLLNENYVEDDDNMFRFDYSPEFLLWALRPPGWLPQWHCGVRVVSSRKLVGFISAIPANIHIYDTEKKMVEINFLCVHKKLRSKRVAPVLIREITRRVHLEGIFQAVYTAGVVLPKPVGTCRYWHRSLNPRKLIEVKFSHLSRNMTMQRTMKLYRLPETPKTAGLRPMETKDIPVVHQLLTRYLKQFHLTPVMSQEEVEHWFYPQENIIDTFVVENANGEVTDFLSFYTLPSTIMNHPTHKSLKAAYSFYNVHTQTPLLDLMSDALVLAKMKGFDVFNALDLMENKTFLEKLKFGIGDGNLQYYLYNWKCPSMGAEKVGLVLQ
Protocol: The IC50 values for human NMT1 (HsNMT1) of Compounds 5 and 7 were measured using a sensitive fluorescence-based assay based on detection of CoA by 7-diethylamino-3-(4-maleimido-phenyl)-4-methylcoumarin, as described in Goncalves, V., et al., Analytical Biochemistry, 2012, 421, 342-344 and Goncalves, V., et al., J. Med. Chem, 2012, 55, 3578.

MRC5 cells = assay: Metabolic activity assay (MTS assay); assay type: cell-based; details: Homo sapiens, MRC5 fibroblast cells, 72 h
Protocol: Compounds 5 and 7 were also tested for activity in an in vitro metabolic activity assay using the human cell line MRC5. Compounds having activity in inhibiting metabolic activity in the assay are expected to be useful as agents for preventing and/or treating cancer, by virtue of being inhibitors of human NMT1 and/or NMT2.
MRC5 cells (cell type: fibroblast cells) were grown in DMEM media (supplemented with 10% FBS) and were seeded in a 96-well plate, 24 h prior to treatment. Cell suspensions were prepared by adjusting the cell density to the appropriate concentration (as stated in the Table 1 below) and 50 μL of the cell suspension was transferred to wells B-G in columns 2-11 of a 96-well plate. […]
After 72 h, 20 μL MTS reagent (Promega, prepared according to the supplier protocol) was added to each well of the 96-well plate. The plate was incubated at 37° C. for 2 h and the absorbance per well was measured at 490 nm with an EnVision plate reader. The average absorbance value of the negative control (Puromycin-treated cells) was subtracted from each value and the metabolic activity was calculated as a percentage relative to the positive control (DMSO-treated cells). EC50 values were calculated using GraphPad.

Question: `Cc1nn(C)c(C)c1CCOc1c(-c2ccc3c(c2)c(CN(C)C)nn3C)ccc(F)c1F` [Compound 2, 1-(5-(3,4-difluoro-2-(2-(1,3,5-trimethyl-1H-pyrazol-4-yl)ethoxy)phenyl)-1-methyl-1H-indazol-3-yl)-N,N-dimethylmethanamine] was tested. Which “cell death with high versus low levels of MYCN” value (SKNAS-ER-N-MYC cell line [1]) did it give?
Answer: increased cell death more rapidly at lower concentrations

Question: What about the cell cycling (SKNAS-ER-N-MYC cell line [2]) of the same molecule?
Answer: do not reduce their cycling

Question: And the “effect on cell viability” value (P-493-6 cell line; 10 nM, 72 hours, Myc high cell lines)?
Answer: measurable effects on cell viability

Question: What about the “cell death depending on c-MYC level” value (P-493-6 cell line; 48 hours and 72 hours, c-MYC high, medium, low) of the same molecule?
Answer: clear MYC-dependent increase in cell death

Question: And the “cell death with high versus low levels of MYCN” value (Shep-ER-N-MYC cell line [3])?
Answer: increased cell death more rapidly at lower concentrations

Question: What about the cell cycling (Shep-ER-N-MYC cell line [4]; MYCN activated cells, FIG. 17) of the same molecule?
Answer: do not reduce their cycling

Question: What about the cell cycling (Shep-ER-N-MYC cell line [4]; cell line without activated MYCN) of the same molecule?
Answer: stops cycling at 48 hours

Question: Which results are given for `Cc1c(CCOc2cc(Cl)ccc2-c2ccc3ncc(CCN)n3c2)c(C(=O)N(C)C)nn1C` [Compound 5, 4-(2-{2-[3-(2-aminoethyl)imidazo[1,2-a]pyridin-6-yl]-5-chlorophenoxy}ethyl)-N,N,1,5-tetramethyl-1H-pyrazole-3-carboxamide]?
Answer: IC50 (human NMT1 (HsNMT1)): 1.5 nM; EC50 (MRC5 cells): 13 nM

Question: What does the source list for `CNC(=O)c1nn(C)c(C)c1CCOc1cc(Cl)ccc1-c1ccc2ncc(CCN)n2c1` [Compound 7, 4-(2-{2-[3-(2-aminoethyl)imidazo[1,2-a]pyridin-6-yl]-5-chlorophenoxy}ethyl)-N,1,5-trimethyl-1H-pyrazole-3-carboxamide]?
Answer: IC50 (human NMT1 (HsNMT1)): 0.4 nM; EC50 (MRC5 cells): 37 nM
